Legend:
SpNanC = assay: Substrate specificity assay of SpNanC; settings: for Percentage conversion (%) by SpNanC: sialoside substrate 0.3 mM, SpNanC (2 μg), Tris-HCl pH 7.0, 30 min, 37° C.; for Cleavage by SpNanC, yield: reactions using 3 μg of SpNanC
SpNanB = SpNanB (Streptococcus pneumoniae serotype 4, UniProt Q54727, E68D/K536E/K577E/N393D/S59P); assay: Substrate specificity of SpNanB; settings: pNP-tagged α2-3-linked sialosides

Row | Compound | Percentage conversion (%) by SpNanC (SpNanC) | Recognition by SpNanB (substrate specificity) (SpNanB) | Cleavage by SpNanC, yield (SpNanC)
1 | O=C(CO)NC1C(O)CC(OC2C(O)C(CO)OC(Oc3ccc([N+](=O)[O-])cc3)C2O)(C(=O)O)OC1C(O)C(O)CO (stereo not drawn) [Neu5Gcα2-3GalβpNP] | 80.6 ± 6.7% | + (+ represents >80% conversion) | –
2 | O=C(CF)NC1C(O)CC(OC2C(O)C(CO)OC(Oc3ccc([N+](=O)[O-])cc3)C2O)(C(=O)O)OC1C(O)C(O)CO (stereo not drawn) [Neu5AcFα2-3GalβpNP] | 74.8 ± 3.2% | + (+ represents >80% conversion) | –
3 | CO[C@@H]([C@@H]1O[C@](O[C@H]2[C@@H](O)[C@@H](CO)O[C@@H](Oc3ccc([N+](=O)[O-])cc3)[C@@H]2O)(C(=O)O)C[C@H](O)[C@H]1O)[C@H](O)CO [Kdn7OMeα2-3GalβpNP] | 23.4 ± 3.3% | − (− represents <20% conversion) | 23%
4 | O=C(O)[C@]1(O[C@H]2[C@@H](O)[C@@H](CO)O[C@@H](Oc3ccc([N+](=O)[O-])cc3)[C@@H]2O)C[C@H](O)[C@@H](O)[C@H]([C@H](O)[C@H](O)CO)O1 [Kdnα2-3GalβpNP] | 4.50 ± 0.45% | − (− represents <20% conversion) | –
5 | COC(C(O)CO)C1OC(OC2C(O)C(CO)OC(Oc3ccc([N+](=O)[O-])cc3)C2O)(C(=O)O)CC(O)C1NC(C)=O (stereo not drawn) [Neu5Ac7OMeα2-3GalβpNP] | 96.5 ± 1.7% | + (+ represents >80% conversion) | –
6 | [N-]=[N+]=NC1C(O)CC(OC2C(O)C(CO)OC(Oc3ccc([N+](=O)[O-])cc3)C2O)(C(=O)O)OC1C(O)C(O)CO (stereo not drawn) [Kdn5N3α2-3GalβpNP] | 0.32 ± 0.45% | − (− represents <20% conversion) | –
7 | CC(=O)NC1C(O)CC(OC2C(O)C(CO)OC(Oc3ccc([N+](=O)[O-])cc3)C2O)(C(=O)O)OC1C(F)C(O)CO (stereo not drawn) [Neu5Ac7Fα2-3GalβpNP] | 91.0 ± 4.3% | + (+ represents >80% conversion) | –
8 | CO[C@H]1[C@H]([C@H](O)[C@H](O)CO)O[C@](O[C@H]2[C@@H](O)[C@@H](CO)O[C@@H](Oc3ccc([N+](=O)[O-])cc3)[C@@H]2O)(C(=O)O)C[C@@H]1O [Kdn5OMe α2-3GalβpNP, Kdn5OMeα2-3GalβpNP] | 1.53 ± 1.02% | − (− represents <20% conversion) | –
9 | O=C(O)C1(OC2C(O)C(CO)OC(Oc3ccc([N+](=O)[O-])cc3)C2O)CC(O)C(O)C(C(O)C(O)CF)O1 (stereo not drawn) [Kdn9Fα2-3GalβpNP] | 3.70 ± 1.14% | − (− represents <20% conversion) | –
10 | O=C(O)[C@]1(O[C@H]2[C@@H](O)[C@@H](CO)O[C@@H](Oc3ccc([N+](=O)[O-])cc3)[C@@H]2O)C[C@H](O)[C@@H](O)[C@H]([C@H](F)[C@H](O)CO)O1 [Kdn7Fα2-3GalβpNP] | 0.56 ± 0.11% | − (− represents <20% conversion) | –
11 | COCC(=O)NC1C(O)CC(OC2C(O)C(CO)OC(Oc3ccc([N+](=O)[O-])cc3)C2O)(C(=O)O)OC1C(O)C(O)CO (stereo not drawn) [Neu5AcOMeα2-3GalβpNP] | 81.8 ± 1.7% | + (+ represents >80% conversion) | –
12 | COCC(O)C(O)C1OC(OC2C(O)C(CO)OC(Oc3ccc([N+](=O)[O-])cc3)C2O)(C(=O)O)CC(O)C1O (stereo not drawn) [Kdn9OMeα2-3GalβpNP] | 4.02 ± 1.36% | − (− represents <20% conversion) | –
13 | O=C(O)[C@@]1(O[C@H]2[C@@H](O)[C@@H](CO)O[C@@H](Oc3ccc([N+](=O)[O-])cc3)[C@@H]2O)C[C@H](O)[C@@H](F)[C@H]([C@H](O)[C@H](O)CO)O1 [Kdn5Fα2-3GalβpNP] | 0.48 ± 0.00% | − (− represents <20% conversion) | –
14 | O=C(O)C1(OC2C(O)C(CO)OC(Oc3ccc([N+](=O)[O-])cc3)C2O)CC(O)CC(C(O)C(O)CO)O1 (stereo not drawn) [Kdn5deoxyα2-3GalβpNP] | 5.31 ± 0.23% | − (− represents <20% conversion) | –
15 | [N-]=[N+]=NCC(O)C(O)C1OC(OC2C(O)C(CO)OC(Oc3ccc([N+](=O)[O-])cc3)C2O)(C(=O)O)CC(O)C1NC(=O)CO (stereo not drawn) [Neu5Gc9N3α2-3GalβpNP] | 89.5 ± 3.5% | + (+ represents >80% conversion) | –
16 | O=C(CO)NC1C(O)CC(OC2C(O)C(CO)OC(Oc3ccc([N+](=O)[O-])cc3)C2O)(C(=O)O)OC1C(O)C(O)CF (stereo not drawn) [Neu5Gc9Fα2-3GalβpNP] | 72.3 ± 2.6% | + (+ represents >80% conversion) | –
17 | O=C(O)C1(OC2C(O)C(CO)OC(Oc3ccc([N+](=O)[O-])cc3)C2O)CC(O)C(O)C(CC(O)CO)O1 (stereo not drawn) [Kdn7deoxyα2-3GalβpNP] | 10.1 ± 0.0% | − (− represents <20% conversion) | 10%
18 | CC(=O)N[C@H]1[C@H](C[C@H](O)CO)O[C@@](O[C@H]2[C@@H](O)[C@@H](CO)O[C@@H](Oc3ccc([N+](=O)[O-])cc3)[C@@H]2O)(C(=O)O)C[C@@H]1O [Neu5Ac7deoxyα2-3GalβpNP] | 91.2 ± 1.8% | + (+ represents >80% conversion) | –
19 | Neu5Ac7N3α2-3GalβpNP | 65.9 ± 1.1% | + (+ represents >80% conversion) | –
20 | [N-]=[N+]=NC(C(O)CO)C1OC(OC2C(O)C(CO)OC(Oc3ccc([N+](=O)[O-])cc3)C2O)(C(=O)O)CC(O)C1O (stereo not drawn) [Kdn7N3α2-3GalβpNP] | 4.50 ± 0.45% | − (− represents <20% conversion) | –
21 | CC(=O)NC1C(O)CC(OC2C(O)C(CO)OC(Oc3ccc([N+](=O)[O-])cc3)C2O)(C(=O)O)OC1C(O)C(C)O (stereo not drawn) [Neu5Ac9deoxyα2-3GalβpNP] | 93.5 ± 3.1% | + (+ represents >80% conversion) | –
22 | COCC(O)C(O)C1OC(OC2C(O)C(CO)OC(Oc3ccc([N+](=O)[O-])cc3)C2O)(C(=O)O)CC(O)C1NC(=O)CO (stereo not drawn) [Neu5Gc9OMeα2-3GalβpNP] | 75.0 ± 1.9% | + (+ represents >80% conversion) | –
23 | C[C@@H](O)[C@@H](O)[C@@H]1O[C@@](O[C@H]2[C@@H](O)[C@@H](CO)O[C@@H](Oc3ccc([N+](=O)[O-])cc3)[C@@H]2O)(C(=O)O)C[C@H](O)[C@H]1NC(=O)CO [Neu5Gc9deoxyα2-3GalβpNP] | 85.5 ± 1.4% | + (+ represents >80% conversion) | –
24 | CC(=O)N[C@H]1[C@H]([C@H](O)[C@H](O)CF)O[C@@](O[C@H]2[C@@H](O)[C@@H](CO)O[C@@H](Oc3ccc([N+](=O)[O-])cc3)[C@@H]2O)(C(=O)O)C[C@@H]1O [Neu5Ac9Fα2-3GalβpNP] | 75.6 ± 3.9% | + (+ represents >80% conversion) | –
25 | COCC(O)C(O)C1OC(OC2C(O)C(CO)OC(Oc3ccc([N+](=O)[O-])cc3)C2O)(C(=O)O)CC(O)C1NC(C)=O (stereo not drawn) [Neu5Ac9OMeα2-3GalβpNP] | 88.5 ± 5.1% | + (+ represents >80% conversion) | –
26 | [N-]=[N+]=NCC(=O)N[C@H]1[C@H]([C@H](O)[C@H](O)CO)O[C@@](O[C@H]2[C@@H](O)[C@@H](CO)O[C@@H](Oc3ccc([N+](=O)[O-])cc3)[C@@H]2O)(C(=O)O)C[C@@H]1O [Neu5AcN3α2-3GalβpNP] | 87.9 ± 1.6% | + (+ represents >80% conversion) | –

— patent US11325936B2, “Sialidase inhibitors and preparation thereof” (The Regents of the University of California, priority 2017, dated 2022)
